Laboratory results published in ChEMBL document CHEMBL1150485, “Rapid synthesis and properties of ()-6-Deoxy-6-fluoro-myo-inositol-1,4,5-tris(phosphate) an analogue of myo-inositol-1,4,5-tris(phosphate)” (Bioorg Med Chem Lett, 1996).
pKd: −log10 of the molar value.

Species: Bos taurus
Test: Binding affinity on adrenal cortex microsomes
Format: functional

| Structure (SMILES) | pKd |
| --- | --- |
| O=P(O)(O)O[C@@H]1[C@H](O)[C@H](O)[C@@H](OP(=O)(O)O)[C@H](OP(=O)(O)O)[C@H]1F | 5.80 |
| O=P(O)(O)O[C@@H]1CC[C@@H](OP(=O)(O)O)[C@H](OP(=O)(O)O)C1 | 5.40 |
| O=P(O)(O)O[C@@H]1[C@H](O)[C@H](O)[C@@H](OP(=O)(O)O)[C@H](OP(=O)(O)O)[C@H]1O [INS(1,4,5)P3] | 8.00 |
